Assay results from ChEMBL document CHEMBL4507304, “Data for DCP probe TP-021” (2021).

What was measured:
[1] = target: Serine/threonine-protein kinase/endoribonuclease IRE1 (Homo sapiens) (UniProt O75460); details: Compound concentration 1000.0 nM
[2] = target: Mitogen-activated protein kinase kinase kinase 9 (Homo sapiens) (UniProt P80192); details: Compound concentration 1000.0 nM
[3] = target: Mitogen-activated protein kinase 12 (Homo sapiens) (UniProt P53778); details: Compound concentration 1000.0 nM
[4] = target: Tyrosine-protein kinase JAK2 (Homo sapiens) (UniProt O60674); details: Compound concentration 1000.0 nM
[5] = target: Alpha-2C adrenergic receptor (Homo sapiens) (UniProt P18825); details: Compound concentration 10.0 uM
[6] = target: Cyclin-dependent kinase 11B (Homo sapiens) (UniProt P21127); details: Compound concentration 1000.0 nM
[7] = target: TRAF2 and NCK-interacting protein kinase (Homo sapiens) (UniProt Q9UKE5); details: Compound concentration 1000.0 nM
[8] = target: Alpha-2A adrenergic receptor (Homo sapiens) (UniProt P08913); details: Compound concentration 10.0 uM
[9] = target: Muscarinic acetylcholine receptor M5 (Homo sapiens) (UniProt P08912); details: Compound concentration 10.0 uM
[10] = system: Tyrosine-protein kinase ABL1 (Homo sapiens), P00519 [M351T]; details: Compound concentration 1000.0 nM
[11] = target: Dual specificity protein kinase CLK3 (Homo sapiens) (UniProt P49761); details: Compound concentration 1000.0 nM
[12] = target: RAC-gamma serine/threonine-protein kinase (Homo sapiens) (UniProt Q9Y243); details: Compound concentration 1000.0 nM
[13] = target: LIM domain kinase 2 (Homo sapiens) (UniProt P53671); details: Compound concentration 1000.0 nM
[14] = target: Ankyrin repeat and protein kinase domain-containing protein 1 (Homo sapiens) (UniProt Q8NFD2); details: Compound concentration 1000.0 nM
[15] = target: Focal adhesion kinase 1 (Homo sapiens) (UniProt Q05397); details: Compound concentration 1000.0 nM
[16] = target: Mitogen-activated protein kinase 10 (Homo sapiens) (UniProt P53779); details: Compound concentration 1000.0 nM
[17] = system: Mast/stem cell growth factor receptor Kit (Homo sapiens), P10721 [D816V]; details: Compound concentration 1000.0 nM
[18] = target: Serine/threonine-protein kinase WNK2 (Homo sapiens) (UniProt Q9Y3S1); details: Compound concentration 1000.0 nM
[19] = target: Serine/threonine-protein kinase ULK1 (Homo sapiens) (UniProt O75385); details: Compound concentration 1000.0 nM
[20] = target: Tyrosine-protein kinase Blk (Homo sapiens) (UniProt P51451); details: Compound concentration 1000.0 nM
[21] = target: Calcium/calmodulin-dependent protein kinase type 1G (Homo sapiens) (UniProt Q96NX5); details: Compound concentration 1000.0 nM
[22] = target: Myosin light chain kinase 2, skeletal/cardiac muscle (Homo sapiens) (UniProt Q9H1R3); details: Compound concentration 1000.0 nM
Rattus norvegicus = organism: Rattus norvegicus; details: Compound concentration 10.0 uM
[23] = target: Serine/threonine-protein kinase MRCK beta (Homo sapiens) (UniProt Q9Y5S2); details: Compound concentration 1000.0 nM
[24] = target: Activin receptor type-2A (Homo sapiens) (UniProt P27037); details: Compound concentration 1000.0 nM
[25] = target: Mitogen-activated protein kinase 11 (Homo sapiens) (UniProt Q15759); details: Compound concentration 1000.0 nM
[26] = system: Epidermal growth factor receptor (Homo sapiens), P00533 [G719C]; details: Compound concentration 1000.0 nM
[27] = target: Serine/threonine-protein kinase 16 (Homo sapiens) (UniProt O75716); details: Compound concentration 1000.0 nM
[28] = target: Serine/threonine-protein kinase Sgk2 (Homo sapiens) (UniProt Q9HBY8); details: Compound concentration 1000.0 nM
[29] = target: Dual specificity tyrosine-phosphorylation-regulated kinase 1A (Homo sapiens) (UniProt Q13627); details: Compound concentration 1000.0 nM
[30] = target: Mitogen-activated protein kinase kinase kinase kinase 3 (Homo sapiens) (UniProt Q8IVH8); details: Compound concentration 1000.0 nM
[31] = target: Mitogen-activated protein kinase kinase kinase 19 (Homo sapiens) (UniProt Q56UN5); details: Compound concentration 1000.0 nM
[32] = target: Serine/threonine-protein kinase PAK 1 (Homo sapiens) (UniProt Q13153); details: Compound concentration 1000.0 nM
[33] = target: Wee1-like protein kinase 2 (Homo sapiens) (UniProt P0C1S8); details: Compound concentration 1000.0 nM
[34] = target: Serine/threonine-protein kinase Nek2 (Homo sapiens) (UniProt P51955); details: Compound concentration 1000.0 nM
[35] = target: Calcium/calmodulin-dependent protein kinase type 1 (Homo sapiens) (UniProt Q14012); details: Compound concentration 1000.0 nM
[36] = target: Activin receptor type-1-like (Homo sapiens) (UniProt P37023); details: Compound concentration 1000.0 nM
[37] = target: Mitogen-activated protein kinase kinase kinase kinase 5 (Homo sapiens) (UniProt Q9Y4K4); details: Compound concentration 1000.0 nM
[38] = target: Phosphatidylinositol 4-phosphate 5-kinase type-1 alpha (Homo sapiens) (UniProt Q99755); details: Compound concentration 1000.0 nM
[39] = target: Uncharacterized serine/threonine-protein kinase SBK3 (Homo sapiens) (UniProt P0C264); details: Compound concentration 1000.0 nM
[40] = target: Serine/threonine-protein kinase STK11 (Homo sapiens) (UniProt Q15831); details: Compound concentration 1000.0 nM
[41] = target: 5-hydroxytryptamine receptor 2A (Homo sapiens) (UniProt P28223); details: Compound concentration 10.0 uM
[42] = system: Phosphatidylinositol 4,5-bisphosphate 3-kinase catalytic subunit alpha isoform (Homo sapiens), P42336 [H1047L]; details: Compound concentration 1000.0 nM
[43] = target: Serine/threonine-protein kinase PLK1 (Homo sapiens) (UniProt P53350); details: Compound concentration 1000.0 nM
[44] = target: 5-hydroxytryptamine receptor 1A (Homo sapiens) (UniProt P08908); details: Compound concentration 10.0 uM

Chain of Activin receptor type-2A (Homo sapiens) (P27037 whole entry): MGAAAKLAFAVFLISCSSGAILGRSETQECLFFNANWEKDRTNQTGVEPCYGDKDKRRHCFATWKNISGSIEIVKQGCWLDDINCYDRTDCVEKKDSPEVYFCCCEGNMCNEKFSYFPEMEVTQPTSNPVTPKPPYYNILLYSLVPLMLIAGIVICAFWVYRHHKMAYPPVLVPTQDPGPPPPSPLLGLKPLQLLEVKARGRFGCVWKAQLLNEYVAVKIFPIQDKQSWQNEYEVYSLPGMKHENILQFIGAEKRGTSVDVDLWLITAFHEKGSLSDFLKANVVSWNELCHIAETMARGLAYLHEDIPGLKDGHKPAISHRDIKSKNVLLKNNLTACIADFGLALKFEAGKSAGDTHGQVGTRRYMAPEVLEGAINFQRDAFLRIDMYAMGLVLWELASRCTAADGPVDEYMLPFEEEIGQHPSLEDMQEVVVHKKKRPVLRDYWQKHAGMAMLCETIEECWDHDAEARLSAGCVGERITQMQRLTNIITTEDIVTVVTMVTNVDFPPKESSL
Chain of Phosphatidylinositol 4-phosphate 5-kinase type-1 alpha (Homo sapiens) (Q99755 whole entry): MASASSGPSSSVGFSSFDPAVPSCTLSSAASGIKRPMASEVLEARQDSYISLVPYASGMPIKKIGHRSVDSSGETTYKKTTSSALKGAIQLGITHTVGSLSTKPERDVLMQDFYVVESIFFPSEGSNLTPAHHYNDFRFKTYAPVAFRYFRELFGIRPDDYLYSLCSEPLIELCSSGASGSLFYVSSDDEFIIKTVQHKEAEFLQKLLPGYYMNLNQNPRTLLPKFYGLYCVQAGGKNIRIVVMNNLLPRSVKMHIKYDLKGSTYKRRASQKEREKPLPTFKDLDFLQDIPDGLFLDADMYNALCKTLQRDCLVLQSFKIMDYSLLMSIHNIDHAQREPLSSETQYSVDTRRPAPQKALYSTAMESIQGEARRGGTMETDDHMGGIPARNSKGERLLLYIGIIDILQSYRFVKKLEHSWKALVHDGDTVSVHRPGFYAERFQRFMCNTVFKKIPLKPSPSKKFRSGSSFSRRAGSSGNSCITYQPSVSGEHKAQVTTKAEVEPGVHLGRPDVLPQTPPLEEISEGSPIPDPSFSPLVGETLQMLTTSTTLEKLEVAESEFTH
Chain of Serine/threonine-protein kinase Nek2 (Homo sapiens) (P51955 whole entry): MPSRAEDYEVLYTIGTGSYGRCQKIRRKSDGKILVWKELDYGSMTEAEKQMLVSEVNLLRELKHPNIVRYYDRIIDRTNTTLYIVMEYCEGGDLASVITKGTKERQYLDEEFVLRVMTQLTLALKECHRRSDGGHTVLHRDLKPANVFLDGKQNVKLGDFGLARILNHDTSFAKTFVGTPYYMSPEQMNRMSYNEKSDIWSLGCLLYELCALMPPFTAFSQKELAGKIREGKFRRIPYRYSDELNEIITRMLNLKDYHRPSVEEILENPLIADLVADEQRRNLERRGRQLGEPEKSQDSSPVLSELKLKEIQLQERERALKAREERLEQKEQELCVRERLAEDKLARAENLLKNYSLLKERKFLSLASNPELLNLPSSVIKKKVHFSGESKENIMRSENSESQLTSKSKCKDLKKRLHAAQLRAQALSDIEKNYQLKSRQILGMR
Chain of Mitogen-activated protein kinase kinase kinase 19 (Homo sapiens) (Q56UN5 whole entry): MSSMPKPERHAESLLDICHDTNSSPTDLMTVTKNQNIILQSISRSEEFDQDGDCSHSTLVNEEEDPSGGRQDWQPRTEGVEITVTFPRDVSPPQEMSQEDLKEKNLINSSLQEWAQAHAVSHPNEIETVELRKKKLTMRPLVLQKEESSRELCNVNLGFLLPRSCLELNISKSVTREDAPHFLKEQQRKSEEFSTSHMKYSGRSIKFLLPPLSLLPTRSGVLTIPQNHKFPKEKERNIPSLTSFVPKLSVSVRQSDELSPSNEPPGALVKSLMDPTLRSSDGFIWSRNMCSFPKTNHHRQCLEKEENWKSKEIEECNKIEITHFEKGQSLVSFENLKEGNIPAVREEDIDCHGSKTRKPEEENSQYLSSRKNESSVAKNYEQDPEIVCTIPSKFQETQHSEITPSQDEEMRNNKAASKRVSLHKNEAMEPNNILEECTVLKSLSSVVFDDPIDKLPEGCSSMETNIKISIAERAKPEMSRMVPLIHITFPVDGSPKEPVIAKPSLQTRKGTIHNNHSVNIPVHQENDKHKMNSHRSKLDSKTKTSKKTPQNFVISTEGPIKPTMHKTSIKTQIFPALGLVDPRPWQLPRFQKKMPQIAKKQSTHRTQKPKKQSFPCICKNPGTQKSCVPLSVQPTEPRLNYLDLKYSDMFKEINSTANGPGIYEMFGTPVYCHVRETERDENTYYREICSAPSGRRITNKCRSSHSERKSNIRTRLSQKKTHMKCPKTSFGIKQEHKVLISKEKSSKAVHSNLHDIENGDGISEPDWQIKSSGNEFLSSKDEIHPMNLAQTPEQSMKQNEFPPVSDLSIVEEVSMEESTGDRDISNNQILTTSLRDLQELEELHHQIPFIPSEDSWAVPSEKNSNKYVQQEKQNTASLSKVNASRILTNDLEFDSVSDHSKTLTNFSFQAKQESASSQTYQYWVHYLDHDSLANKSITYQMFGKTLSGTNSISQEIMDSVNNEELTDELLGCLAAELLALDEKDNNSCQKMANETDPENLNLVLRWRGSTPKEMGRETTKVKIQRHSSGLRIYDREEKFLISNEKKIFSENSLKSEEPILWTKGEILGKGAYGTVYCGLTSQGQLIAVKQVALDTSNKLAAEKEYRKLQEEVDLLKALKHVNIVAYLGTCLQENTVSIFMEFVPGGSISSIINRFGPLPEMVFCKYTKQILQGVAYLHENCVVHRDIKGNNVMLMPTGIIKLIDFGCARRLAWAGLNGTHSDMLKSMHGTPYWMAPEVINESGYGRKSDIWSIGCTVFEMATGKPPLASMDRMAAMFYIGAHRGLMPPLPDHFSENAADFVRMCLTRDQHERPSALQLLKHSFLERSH
Chain of Cyclin-dependent kinase 11B (Homo sapiens) (P21127 whole entry): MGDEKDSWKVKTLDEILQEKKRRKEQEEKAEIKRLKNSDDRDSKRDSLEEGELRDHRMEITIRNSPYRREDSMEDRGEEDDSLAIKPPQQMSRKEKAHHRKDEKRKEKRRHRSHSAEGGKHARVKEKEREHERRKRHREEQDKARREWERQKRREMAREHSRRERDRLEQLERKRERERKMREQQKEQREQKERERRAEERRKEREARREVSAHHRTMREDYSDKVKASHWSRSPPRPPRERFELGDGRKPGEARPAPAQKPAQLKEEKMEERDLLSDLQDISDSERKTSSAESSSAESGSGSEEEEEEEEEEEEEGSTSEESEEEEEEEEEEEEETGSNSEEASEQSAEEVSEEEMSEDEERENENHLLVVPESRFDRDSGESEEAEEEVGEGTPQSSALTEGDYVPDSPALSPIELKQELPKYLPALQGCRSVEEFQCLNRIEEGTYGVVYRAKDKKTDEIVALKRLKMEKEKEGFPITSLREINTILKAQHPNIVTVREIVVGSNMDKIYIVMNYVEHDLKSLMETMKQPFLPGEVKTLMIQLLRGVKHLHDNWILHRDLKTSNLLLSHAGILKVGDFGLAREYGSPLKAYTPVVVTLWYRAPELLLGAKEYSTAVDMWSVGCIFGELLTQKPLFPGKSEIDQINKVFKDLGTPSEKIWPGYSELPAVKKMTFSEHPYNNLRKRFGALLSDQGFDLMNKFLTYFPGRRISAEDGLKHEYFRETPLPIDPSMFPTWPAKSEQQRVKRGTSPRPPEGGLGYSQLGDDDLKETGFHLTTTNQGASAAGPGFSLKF
Chain of Mast/stem cell growth factor receptor Kit (Homo sapiens), P10721 [D816V] (P10721 whole entry D816V): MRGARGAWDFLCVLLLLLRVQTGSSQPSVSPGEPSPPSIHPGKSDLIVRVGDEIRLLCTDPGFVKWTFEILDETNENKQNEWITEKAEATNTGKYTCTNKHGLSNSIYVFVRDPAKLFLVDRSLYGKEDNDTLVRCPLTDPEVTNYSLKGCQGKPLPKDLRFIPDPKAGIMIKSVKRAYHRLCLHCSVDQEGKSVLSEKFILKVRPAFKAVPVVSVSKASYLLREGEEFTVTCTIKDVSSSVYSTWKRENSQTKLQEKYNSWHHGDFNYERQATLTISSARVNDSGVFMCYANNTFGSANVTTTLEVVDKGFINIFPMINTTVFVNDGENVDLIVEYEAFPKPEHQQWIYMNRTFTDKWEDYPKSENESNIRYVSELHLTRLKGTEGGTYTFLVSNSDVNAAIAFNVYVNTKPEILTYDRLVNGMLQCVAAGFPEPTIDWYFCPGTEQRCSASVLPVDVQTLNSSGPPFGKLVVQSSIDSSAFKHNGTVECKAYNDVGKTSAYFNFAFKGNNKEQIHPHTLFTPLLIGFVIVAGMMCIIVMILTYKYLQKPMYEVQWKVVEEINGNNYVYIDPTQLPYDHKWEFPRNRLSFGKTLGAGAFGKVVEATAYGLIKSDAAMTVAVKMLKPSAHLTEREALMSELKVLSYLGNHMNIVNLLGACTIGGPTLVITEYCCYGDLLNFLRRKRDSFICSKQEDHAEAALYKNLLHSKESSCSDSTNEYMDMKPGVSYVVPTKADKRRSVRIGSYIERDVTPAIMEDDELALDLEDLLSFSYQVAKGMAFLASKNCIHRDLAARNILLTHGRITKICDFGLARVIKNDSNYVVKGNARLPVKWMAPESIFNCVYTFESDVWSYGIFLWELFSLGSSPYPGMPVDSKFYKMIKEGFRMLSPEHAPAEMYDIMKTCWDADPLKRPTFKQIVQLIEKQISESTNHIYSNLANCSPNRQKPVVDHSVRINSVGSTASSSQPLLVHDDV
Chain of Mitogen-activated protein kinase 11 (Homo sapiens) (Q15759 whole entry): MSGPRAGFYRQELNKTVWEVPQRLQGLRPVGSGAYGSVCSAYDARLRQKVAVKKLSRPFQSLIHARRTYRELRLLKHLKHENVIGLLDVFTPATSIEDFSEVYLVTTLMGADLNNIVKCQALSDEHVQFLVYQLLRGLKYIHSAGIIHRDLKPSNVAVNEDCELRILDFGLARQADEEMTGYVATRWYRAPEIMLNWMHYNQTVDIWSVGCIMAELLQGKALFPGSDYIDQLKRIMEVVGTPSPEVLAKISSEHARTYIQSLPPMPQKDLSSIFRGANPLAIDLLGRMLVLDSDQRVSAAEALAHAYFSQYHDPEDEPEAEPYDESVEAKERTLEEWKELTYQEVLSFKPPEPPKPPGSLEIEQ

N#Cc1ccc(Nc2ccc3[nH]c(=O)[nH]c3c2)c(Cl)c1
inactive: residual activity [1] 86% | residual activity [2] 100% | residual activity [3] 100% | residual activity [4] 100% | inhibition [5] 4.16% | residual activity [6] 100% | residual activity [7] 99% | inhibition [8] 2.09% | inhibition [9] 12.6% | residual activity [10] 100% | residual activity [11] 96% | residual activity [12] 69% | residual activity [13] 100% | residual activity [14] 100% | residual activity [15] 100% | residual activity [16] 100% | residual activity [17] 88% | residual activity [18] 100% | residual activity [19] 81% | residual activity [20] 97% | residual activity [21] 100% | residual activity [22] 99% | inhibition (Rattus norvegicus) 3.22% | residual activity [23] 100% | residual activity [24] 70% | residual activity [25] 100% | residual activity [26] 100% | residual activity [27] 91% | residual activity [28] 65% | residual activity [29] 100% | residual activity [30] 88% | residual activity [31] 100% | residual activity [32] 85% | residual activity [33] 100% | residual activity [34] 93% | residual activity [35] 86% | residual activity [36] 100% | residual activity [37] 77% | residual activity [38] 100% | residual activity [39] 96% | residual activity [40] 100% | inhibition [41] 5.37% | residual activity [42] 78% | residual activity [43] 100% | inhibition [44] -5.44%

O=C1CCc2cc(Nc3cc(OC4CCOCC4)c([N+](=O)[O-])cc3Cl)ccc2N1
inactive: residual activity [1] 99% | residual activity [2] 90% | residual activity [3] 100% | residual activity [4] 100% | inhibition [5] -0.13% | residual activity [6] 98% | residual activity [7] 100% | inhibition [8] 4.66% | inhibition [9] 12.6% | residual activity [10] 100% | residual activity [11] 100% | residual activity [12] 94% | residual activity [13] 100% | residual activity [14] 82% | residual activity [15] 100% | residual activity [16] 98% | residual activity [17] 100% | residual activity [18] 100% | residual activity [19] 87% | residual activity [20] 94% | residual activity [21] 100% | residual activity [22] 90% | inhibition (Rattus norvegicus) 13.4% | residual activity [23] 90% | residual activity [24] 81% | residual activity [25] 88% | residual activity [26] 100% | residual activity [27] 93% | residual activity [28] 80% | residual activity [29] 80% | residual activity [30] 91% | residual activity [31] 100% | residual activity [32] 88% | residual activity [33] 96% | residual activity [34] 95% | residual activity [35] 93% | residual activity [36] 93% | residual activity [37] 87% | residual activity [38] 100% | residual activity [39] 100% | residual activity [40] 100% | inhibition [41] 3.21% | residual activity [42] 78% | residual activity [43] 100% | inhibition [44] -4.09%
